In PubChem BioAssay (NCI):
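Five compound concentrations were applied to cells in 96-well plates for 48 hours; endpoints were derived by simple linear interpolation of the resulting dose-response curve. Here, GI50 denotes the concentration required for 50% inhibition of growth. TGI denotes the concentration required for complete inhibition of growth.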

Experiments:
Assay in all cases: growth of human tumour cells (NCI), 48 h
MDA-MB-231 breast = system: MDA-MB-231 breast
NCI-H460 lung = system: NCI-H460 lung
HCC-2998 colon = system: HCC-2998 colon
U251 CNS = system: U251 CNS
SN12C renal = system: SN12C renal
K-562 leukemia = system: K-562 leukemia
SNB-75 CNS = system: SNB-75 CNS
OVCAR-5 ovarian = system: OVCAR-5 ovarian
A498 renal = system: A498 renal
SR leukemia = system: SR leukemia

Row | SMILES | GI50 (MDA-MB-231 breast) [µM] | TGI (MDA-MB-231 breast) [µM] | GI50 (NCI-H460 lung) [µM] | TGI (NCI-H460 lung) [µM] | GI50 (HCC-2998 colon) [µM] | TGI (HCC-2998 colon) [µM] | GI50 (U251 CNS) [µM] | TGI (U251 CNS) [µM] | GI50 (SN12C renal) [µM] | TGI (SN12C renal) [µM] | GI50 (K-562 leukemia) [µM] | TGI (K-562 leukemia) [µM] | GI50 (SNB-75 CNS) [µM] | TGI (SNB-75 CNS) [µM] | GI50 (OVCAR-5 ovarian) [µM] | TGI (OVCAR-5 ovarian) [µM] | GI50 (A498 renal) [µM] | TGI (A498 renal) [µM] | GI50 (SR leukemia) [µM] | TGI (SR leukemia) [µM]
1 | CCCCc1cc(O)ccc1O | 15.1 | > 100 | 39 | > 100 | 70.8 | > 100 | 37.4 | > 100 | 18.7 | > 100 | 10.3 | > 100 | 14.1 | > 100 | 30 | > 100 | > 100 | > 100 | 8.26 | > 100
2 | Cc1ccc(-c2cc3nc(-c4ccccc4)nc(C(Cl)Cl)n3n2)cc1 | 0.628 | 1.59 | 0.45 | 1.42 | 0.891 | 1.69 | 0.419 | 1.6 | 2.92 | > 50 | 1.76 | > 50 | 0.295 | 1.04 | 1.19 | 3.31 | 0.672 | 1.39 | 3.73 | > 50
3 | O=C1Cc2c(-c3ccccc3)cc(-c3cccc(Cl)c3)nc2-c2ccccc2N1 | – | 5.49 | – | 3.71 | – | 7.76 | – | 3.12 | – | 16.2 | – | > 40.3 | – | 6.04 | – | 30.3 | – | 15.7 | – | > 100
4 | COC1C(=O)CCC2(CO2)C1(O)C1(C)OC1CCC(C)C (centres undefined) | – | > 100 | – | > 100 | – | > 100 | – | > 100 | – | > 100 | – | > 100 | – | > 100 | – | > 100 | – | > 100 | – | > 100
5 | O=C1OCC2=Nc3cccc4cccc(c34)N12 | – | > 100 | – | > 100 | – | > 100 | – | > 100 | – | > 100 | – | > 100 | – | > 100 | – | – | – | – | – | > 100
6 | CCOC(=O)/C(C1=CC(=O)C(=O)c2ccccc21)=C(/C)NCc1ccccc1 | 1.37 | 3.28 | 3.23 | 12 | 2.85 | 8.2 | 0.606 | – | 2.12 | 5.09 | 1.3 | 3.24 | 3.11 | 55.5 | 2.43 | 6.69 | 4.77 | 10.4 | 0.127 | 0.274
7 | OCCCNCc1ccccn1 | – | > 100 | – | > 100 | – | – | – | > 100 | – | > 100 | – | > 100 | – | > 100 | – | > 100 | – | > 100 | – | > 100
8 | COc1ccc(N=Cc2ccc(N(CCC#N)CCC#N)cc2)cc1 | – | > 100 | – | > 100 | – | > 88.1 | – | > 100 | – | > 100 | – | > 100 | – | > 100 | – | > 100 | – | > 100 | – | > 100
9 | Nc1ncnc2c1ncn2C1OC(C(=O)O)C(O)C1O (centres undefined) | – | > 100 | – | > 100 | – | – | – | > 100 | – | > 100 | – | > 100 | – | > 100 | – | > 100 | – | > 100 | – | > 100
10 | Nc1ccc2c(c1)[O][Sn]([c]1ccccc1)([c]1ccccc1)[O]C2=O | 5.11 | 11.6 | 16 | 33.6 | 17.8 | 33.2 | 8.6 | 16.3 | 7.24 | 20.4 | 2.56 | 15.2 | 7.64 | 18.9 | 17.2 | 31.1 | 18 | 31.9 | 3.01 | > 30.4
11 | NC(N)=N/N=C/c1c(-c2cc(Cl)sc2Cl)nc2n1CCS2 | 7.64 | 15.6 | 25.5 | > 50 | 5.11 | 12.6 | 7.61 | 14.4 | 7.18 | 14.2 | 16 | 43.7 | – | – | 7.87 | 14.7 | 8.9 | 16.6 | 8.04 | 20.7
12 | OC1CCC(C2C3CCCCC3C3CCCCC3C2C2CCC(O)CC2)CC1 (centres undefined) | – | 9.66 | – | 10.2 | – | – | – | 14 | – | > 100 | – | > 100 | – | 21.6 | – | > 100 | – | 32.2 | – | > 100
13 | CCc1ccc(C2=C(O)C(=O)C(c3ccc(CC)cc3)=C(O)C2=O)cc1 | 2.53 | 11 | 2.06 | 5 | 2.09 | 5.75 | 2.26 | 10.1 | 2.28 | 9.79 | 1.34 | 3.61 | 1.37 | 4.19 | 1.61 | 5.88 | 1.74 | 5.36 | 1.91 | 5.07
14 | C=C(CNCCO)[C@@H]1CC[C@]2(CO)CC[C@]3(C)[C@H](CC[C@@H]4[C@@]5(C)CCC(NCCc6ccc(O)cc6)C(C)(C)[C@@H]5CC[C@]43C)[C@@H]12 (some centres undefined) | 0.854 | 2.17 | 1.18 | 2.63 | 0.355 | 1.43 | 0.278 | 0.717 | 1.69 | 3.19 | – | – | 1.31 | 2.63 | 1.7 | 3.29 | 1.46 | 2.81 | 0.25 | 0.802
15 | COC(=O)c1ccc2c(c1)c1c(C)c3cnccc3c(C)c1n2C | 0.125 | 0.884 | 0.178 | 0.674 | 0.137 | 3.85 | 0.0499 | 1.48 | 0.044 | 1.3 | 0.0442 | 1.8 | 0.072 | 0.563 | 0.117 | 1.26 | 0.0348 | 0.166 | 0.0372 | 2.04
16 | c1ccc2c(NCCCCCCCCNc3c4ccccc4nc4ccccc34)c3ccccc3nc2c1 | – | 1.74 | – | 1.33 | – | 3.61 | – | 2.09 | – | 2.18 | – | – | – | 2.62 | – | 2.2 | – | 2.68 | – | 0.755
